Experimental data: publication PMC7811009, “Oxytocin modulates local topography of human functional connectome in healthy men at rest” (Communications Biology, 2021)

What was measured:
[1] = tested on: human functional connectome at rest; test: Resting-state BOLD-fMRI: network edges (microscale), FDR and Network Based Statistics; format: in vivo
Text: We used the CONN functional connectivity toolbox[97] to generate brain-wide functional connectivity matrices for each subject/session. […] The default atlas of the CONN toolbox includes 132 non-overlapping ROIs spanning cortical and subcortical areas and the cerebellum using a combination of the cortical and subcortical areas from the FSL Harvard-Oxford atlas and of the cerebellar areas of the Automatic Anatomical Labelling atlas (Supplementary data 1 for a detailed description). […] Finally, we normalized our correlation measures to z-scores using the Fisher’s r-z transform per subject/session.
We did so by examining treatment-related changes in mean connectivity and global efficiency of the whole-brain network (macroscale), graph properties of regional connectivity at the node level (mesoscale) and individual connections between pairs of nodes (microscale). These analyses were performed using repeated measures one-way analysis of variance, implemented in Matlab 2016. When a significant effect was found, we followed up with post-hoc paired t-tests between each pair of the four treatment conditions, using FDR correction for multiple testing.
Microscale. We performed two different analyses to investigate treatment-related changes on each individual edge of the connectivity matrices. […]

[2] = tested on: human functional connectome at rest; test: Resting-state BOLD-fMRI, graph theory: global efficiency (macroscale); 40 IU intranasal (spray/nebuliser) or 10 IU intravenous, about 57 min post-dosing, 16 healthy men; format: in vivo; details: repeated measures one-way ANOVA, F (1.932, 28.980) = 0.568, p = 0.567
Procedure: Each experimental session began with the treatment administration protocol that lasted about 22 min in total (Fig. 8, lower panel). After drug administration, participants were guided to the MRI scanner, where eight pulsed continuous arterial spin labelling scans (each lasting approx. eight minutes) were acquired, spanning 15–104 min post-dosing (data reported elsewhere[11]). The 8-min resting state BOLD-fMRI scan reported herein was obtained at about 57 ± 3.38 min post-dosing. Participants were instructed to lie still and maintain their gaze on a centrally placed fixation cross during scanning. We assessed participants’ levels of alertness (anchors: alert-drowsy) and excitement (anchors: excited-calm) using visual analogue scales (0–100) at three different time-points during the scanning session to evaluate subjective drug effects across time (data reported elsewhere[11]).
MRI data were acquired on a 3 T MR750 system (GE Healthcare, Waukesha, Wisconsin) with a 32-channel head coil. Functional data was acquired using a shot multi-echo echo planar imaging (EPI) sequence (TR = 2500 ms, TE’s = 12, 28, 44 and 60 ms, FA = 80°, FOV = 240 × 240 mm^2, Matrix = 64 × 64, Slice thickness = 3 mm, 32 continuous descending axial slices, resolution = 3.75 × 3.75 × 3 mm). […] The resting state fMRI scan lasted 8 min 10 s, with collection of a total of 192 volumes for each echo. […]

## CC[C@H](C)[C@@H]1NC(=O)[C@H](Cc2ccc(O)cc2)NC(=O)[C@@H](N)CSSC[C@@H](C(=O)N2CCC[C@H]2C(=O)N[C@@H](CC(C)C)C(=O)NCC(N)=O)NC(=O)[C@H](CC(N)=O)NC(=O)[C@H](CCC(N)=O)NC1=O [oxytocin]
[1]; FDR correction for the number of edges
  Connectivity of individual edges across the four treatment conditions: did not find any individual edge where the four treatment conditions differed in connectivity
[1]; NBS, irrespective of the primary threshold used
  Connectivity of subnetworks across the four treatment conditions: did not identify any subnetwork where the four treatment conditions differed on connectivity
[2]
  Differences in global efficiency across the four treatment conditions: no significant differences
